Source: patent US20250154202A1, “CYCLIC EPITOPE TAGS” (BIONTECH SE, priority 2022, published 2025)
Like-named read-outs stand apart in the source and are kept apart here.

Tests used:
[1] = mouse, in vivo, iv; for AUC(0-inf): AUC0-inf; for AUC(0-t): AUC0-t
Description: (§1) C57BL/6NRj mice were obtained from Janvier Labs, France. In this study, approximately 8-week-old female mice were used.
(§2) Prior to administration into the lateral tail vein, the body weight of the animals was determined to calculate the individual volume of the injecting compound (5 mL/kg body weight). The injection, as well as the blood sampling, were carried out under short anesthesia (0.7 L/min O2, 1.7 L/min N2O, 2% Isoflurane). Blood was sampled from the retro-orbital plexus using microhematocrit capillary (Ø 0.8 mm) and collected into K3EDTA tubes, at the time points indicated in Table 10.
(§3) The plasma was separated by centrifugation (10,000×g; 10 min; 4° C.), aliquoted into microtubes and stored at −80° C.
(§4) 20 μl of each plasma sample was transferred into PCR tubes. 80 μl IS (internal standard)-solution in acetonitrile+1% FA was added for protein precipitation.
(§5) The sample tubes were sealed with pierceable cap mats and vortexed. After homogenization for 5 min in an ultrasonic bath the samples were centrifuged at 3000 rpm at ambient temperature for 15 min. 1 μl supernatant was injected into the instrument for LC-MS/MS analysis. For LC-MS/MS quantification a ExionLC™ UHPLC coupled to a QTRAP® 6500+ mass spectrometer (Sciex) was used in ESI positive mode. Parameters for mass spectrometry were listed in the tables below, Chromatographic separation was achieved on a ACQUITY UPLC BEH C18 column (Waters, 1.7 μm, 2.1×50 mm).
(§6) Compound concentrations in plasma samples were calculated using a 10-point calibration curve in plasma over a concentration range of 1 to 1000 ng/ml. QC samples of 1, 10, 100, 1000 ng/ml were analyzed before and after each dose group. Samples exceeding the upper limit of quantification (1000 ng/ml) were re-analyzed after 10-fold dilution in blank plasma. All calculations were performed in Sciex OS Version 1.7.0.36606 and MS-EXCEL®.
(§7) Pharmacokinetic parameters were calculated for both compounds using the software Kinetica (version 4.4.1, Thermo Scientific) applying a non-compartmental model (NCA).

[2] = human, plasma
Description: (§8) Plasma stability measurements were performed by spiking 5 μl of a 1 mM compound stock solution in DMSO into 495 μl of human or mouse Li-heparin plasma (Innovative Research, Cat. No, IPLALIH5OML (human) and IMS-BC-N (Balb C mouse). The spiked plasma was distributed in 50 μl aliquots into capped PCR tubes for incubation at 37° C. At each time point (0, 2, 6, 24 hours*) 3*aliquots were withdrawn from the incubator. Enzymatic reactions were quenched directly after withdrawal by adding 100 μl of acetonitrile/formic acid=99/1 (v/v). Quenched samples were stored at ambient temperature until the end of the incubation period (24 hrs*). After centrifugation, the supernatant was transferred into fresh vials and analyzed by LC-MS/MS in ESI positive mode (Waters ACQUITY UPLC I-Class System (SM-FTN) with Xevo TQD triple quadrupole mass spectrometer with control software Waters MassLynx). […] Values below the limit of quantification (0.1 μM) and outliers of triplicate results were excluded from further calculations. An exponential regression curve was fitted onto the concentration results. Half-life times were calculated from the slope of the regression curve (t1/2=ln(2)/slope).
(§9) For some samples, as indicated below, the incubation time was 6 hours. The 24 hour data was measured in triplicates whereas the 6 hour data was measured in duplicates.

[3] = mouse, plasma
Description: as §8, §9

[4] = mouse, in vivo, iv
Description: as §1, §2, §3, §4, §5, §6, §7

[5] = in vivo; settings: female, C57BL/6NRj, mouse, iv, 10 mg/kg
Description: as §1, §2, §3, §4, §5, §6, §7

[6] = in vitro; settings: human, plasma, Conc. (% of T0)
Description: as §8, §9

[7] = in vitro; settings: Balb C, mouse, plasma
Description: as §8, §9

“Ac-PSRLEEELRRRLTE-NH2 [SD14316, Ac-Pro-Ser-Arg-Leu-Glu-Glu-Glu-Leu-Arg-Arg-Arg-Leu-Thr-Glu-NH2]” gave an MRT inf ([1]; 3 mg/kg) of 4 min, an MRT last ([1]; 3 mg/kg) of 3.7 min and a Tmax ([1]; 3 mg/kg) of 5 min. It also gave a clearance ([1]; 3 mg/kg) of 962 mL/min/kg, an AUC(0-inf) ([1]; 3 mg/kg) of about 52 ng·h/mL and an AUC(0-t) ([1]; 3 mg/kg) of 51 ng·h/mL. For the same substance, the C0 ([1]; 3 mg/kg) was about 656 ng/mL, the Cmax ([1]; 3 mg/kg) was 306 ng/mL and the Vd ([1]; 3 mg/kg, Vss) was 3.89 L/kg. The Vd ([1]; 3 mg/kg, Vz) was about 6.3 L/kg, the MRT inf ([1]; 10 mg/kg) was 4.1 min and the MRT last ([1]; 10 mg/kg) was 4 min. The Tmax ([1]; 10 mg/kg) was 5 min, the clearance ([1]; 10 mg/kg) was 724 mL/min/kg and the AUC(0-inf) ([1]; 10 mg/kg) was 230 ng·h/mL. The AUC(0-t) ([1]; 10 mg/kg) was 230 ng·h/mL, the C0 ([1]; 10 mg/kg) was about 2400 ng/mL and the Cmax ([1]; 10 mg/kg) was 1660 ng/mL. For the same substance, the Vd ([1]; 10 mg/kg, Vss) was 2.95 L/kg, the Vd ([1]; 10 mg/kg, Vz) was 4.48 L/kg and the half-life ([2]; Flag (half-life, assay exceeded)) was over 360 min. The half-life ([2]; Half-life time) was 646 min, the half-life [3] was 228 min and the AUCextra ([4]; 3 mg/kg) was ~1.5^(1) %. The Vc ([4]; 3 mg/kg) was ~4574^(1) mL/kg, the t1/2effective ([4]; 3 mg/kg) was ~2.6^(1) min and the t1/2initial ([4]; 3 mg/kg) was ~1.6^(1) min. For the same substance, the t1/2terminal ([4]; 3 mg/kg) was ~4.5^(1) min, the λinitial ([4]; 3 mg/kg) was 0.45^(2) min^−1 and the λterminal ([4]; 3 mg/kg) was 0.15^(2) min^−1. The AUCextra ([4]; 10 mg/kg) was 0.2%, the Vc ([4]; 10 mg/kg) was ~4175^(1) mL/kg and the t1/2effective ([4]; 10 mg/kg) was 2.8 min. For the same substance, the t1/2initial ([4]; 10 mg/kg) was ~1.3^(1) min, the λinitial ([4]; 10 mg/kg) was 0.52^(2) min^−1 and the λterminal ([4]; 10 mg/kg) was 0.16 min⁻¹. The half-life [5] was 4.3 min, the remaining at 1 h, 10 µM [6] was 89% and the remaining at 3 h, 10 µM [6] was 78.9%. The remaining at 6 h, 10 µM [6] was 66.9%, the remaining at 2 h, 10 µM [7] was 72.7% and the remaining at 6 h, 10 µM [7] was 33.8%.
